Experimental findings from patent publication US20240025913A1, “TERTIARY CARBOXAMIDE COMPOUNDS” (Vivace Therapeutics, Inc., priority 2020, published 2024) are described below.

For this experiment, the system named is 8×TBD luciferase reporter in HEK293T cells. Briefly: YAP Reporter Assay (firefly luciferase). It counts as cell-based. As to conditions: Homo sapiens, HEK-293T; HEK293T cells stably transfected with 8×TBD luciferase reporter and pRLTK; 24-hr incubation; starting from 3 μM, 1:3 dilution, 10 points. As to the method: HEK293T cells stably transfected with 8×TBD luciferase reporter and pRLTK in 384-well plates were treated with the test compounds, starting from 3 μM (final concentration in assay plate), 1:3 dilution, and 10 points in quadruplicates. Post 24-hr incubation with compounds at 37° C. and 5% CO2, cells were lysed and 8×TBD-driven firefly luciferase and control TK-driven renilla luciferase activities were measured using Promega Dual-Luciferase Reporter Assay System.
Reagents: The reagents used for this study are: DMEM: Invitrogen #11960077, Dual-Glo Luciferase Assay System: Promega-E2980, Puromycin Dihydrochloride: Invitrogen-A1113803, 384-well plate: PerkinElmer-6007480, L-GLUTAMINE: Invitrogen-25030164, Hygromycin B: Invitrogen-10687010, and Penicillin-Streptomycin: Merk-TMS-AB2-C
Media: The media used for this assay were: Culture Medium: DMEM+1 ug/mL puromycin+200 ug/mL hygromycin (with 10% FBS+1 mM L-glutamine); and Assay Medium: DMEM (with 10% FBS+1 mM L-glutamine+1×P/S).
Cell Plating: The appropriate media was warmed at 37° C. by water bath: Culture Medium, Assay Medium, 1*D-PBS, 0.05% trypsin-EDTA. The cells were trypsinized after removing all media, then washed with 1*sterile D-PBS and then with 2 ml 0.05% trypsin-EDTA. The cells were then incubated at RT for one minute. Then 10 ml/75 cm2 flask Assay Medium was added to each flask. Using a 10 ml pipette, the cells were then gently resuspended in the media, until the clumps completely disappeared. The cells were then transferred into 50 ml centrifuge tubes and were centrifuged at 800 rpm for 5 mins. The medium was removed and the cells were resuspended with Assay Medium. An aliquot of cells was used to count the cell density (cells/ml). The cell suspension was then diluted with Assay Medium to a concentration of 6×10^4 cells/ml. 50 ul cells suspension was then plated to 384-well plate (PerkinElmer-6007480), 3×10^3 cells/well and the cells were incubated in an incubator at 37° C., 5% CO2.
Compound Treatment: In the afternoon (incubation of the plate with 3-4 hrs), the test compounds were added by Echo, starting from 3 uM (final concentration in the assay plate), 1:3 dilution, 10 points, quadruplicates. The plate was placed at 37° C., 5% CO2 incubator for 24 hrs.
Detection: The Dual-Glo Luciferase Reagent was prepared by transferring the contents of one bottle of Dual-Glo Luciferase Buffer to one bottle of Dual-Glo Luciferase Substrate to create the Dual-G Luciferase Reagent. Mixing was performed by inversion until the substrate was thoroughly dissolved. After mixing, the reagent was aliquoted into 15 ml tubes. In the afternoon (24 hrs post compound treatment), the DMEM+ medium in the 384 well plates were aspirated by Microplate Washer.
Measuring firefly luciferase activity: 20 ul Dual-Glo Luciferase Reagent was added to the 384-well plates. The plates were protected from light to prevent interference with the assay. The plates were shaken for […] followed centrifuging plates at 1000 rpm for 30 seconds. After waiting at least 10 minutes, the firefly luminescence was measured by Envision.
Measuring renilla luciferase activity: 20 ul Stop-Glo Reagent was added to the 384-well plates. The plates were shaken for […] and then centrifuged at 1000 rpm for 30 seconds. After waiting at least 10 minutes, the renilla luminescence was measured by Envision.
Compound IC50 and maximum inhibition on the firefly luciferase and renilla luciferase activities were reported separately.
For the compound `O=C(c1ccc2c(Oc3ccc(C(F)(F)F)cc3)cccc2c1)N1CC(CNCCF)C1` [Compound 36, (3-(((2-Fluoroethyl)amino)methyl)azetidin-1-yl)(5-(4-(trifluoromethyl)phenoxy)naphthalen-2-yl)methanone], the IC50 fell in the range of 100 to 1000 nM.

On to `O=C(c1ccc2c(Oc3ccc(C(F)(F)F)cc3)cccc2c1)N1CC(CNCC(F)F)C1` [Compound 38, (3-(((2,2-Fifluoroethyl)amino)methyl)azetidin-1-yl)(5-(4-(trifluoromethyl)phenoxy)naphthalen-2-yl)methanone], for which the IC50 is ≤ 100 nM.

In the case of `CCNCC1CN(C(=O)c2ccc3c(Oc4ccc(C(F)(F)F)cc4)cccc3c2)C1` [Compound 33, (3-((Ethylamino)methyl)azetidin-1-yl)(5-(4-(trifluoromethyl)phenoxy)naphthalen-2-yl)methanone], the 50% inhibitory concentration (IC50) lay in the range of 100 to 1000 nM.

With `NCC1CN(C(=O)c2ccc3c(Oc4ccc(C(F)(F)F)cc4)cccc3c2)C1` [Compound 7, (3-(Aminomethyl)azetidin-1-yl)(5-(4-(trifluoromethyl)phenoxy)naphthalen-2-yl)methanone], the IC50 is ≤ 100 nM.

`CCNC1CN(C(=O)c2ccc3c(Oc4ccc(C(F)(F)F)cc4)cccc3c2)C1` [Compound 27, (3-(Ethylamino)azetidin-1-yl)(5-(4-(trifluoromethyl)phenoxy)naphthalen-2-yl)methanone] registered an IC50 of 100 to 1000 nM.

In the case of `NC1CCN(C(=O)c2ccc3c(Oc4ccc(C(F)(F)F)cc4)cccc3c2)CC1` [Compound 4, (4-Aminopiperidin-1-yl)(5-(4-(trifluoromethyl)phenoxy)naphthalen-2-yl)methanone], the concentration for half-maximal inhibition (IC50) is ≤ 100 nM.

As to `CC(C)NCC1CN(C(=O)c2ccc3c(Oc4ccc(C(F)(F)F)cc4)cccc3c2)C1` [Compound 34, (3-((Isopropylamino)methyl)azetidin-1-yl)(5-(4-(trifluoromethyl)phenoxy)naphthalen-2-yl)methanone], the IC50 lay within 100 to 1000 nM.

As to `O=C(c1ccc2c(Oc3ccc(C(F)(F)F)cc3)cccc2c1)N1CC(CNc2ccccn2)C1` [Compound 40, (3-((Pyridin-2-ylamino)methyl)azetidin-1-yl)(5-(4-(trifluoromethyl)phenoxy)naphthalen-2-yl)methanone], the 50% inhibitory concentration (IC50) is ≤ 100 nM.

Regarding `O=C(c1ccc2c(Oc3ccc(C(F)(F)F)cc3)cccc2c1)N1CC(NCCF)C1` [Compound 31, (3-((2-Fluoroethyl)amino)azetidin-1-yl)(5-(4-(trifluoromethyl)phenoxy)naphthalen-2-yl)methanone], the IC50 is 100 to 1000 nM.

In turn, `O=C(c1ccc2c(Oc3ccc(C(F)(F)F)cc3)cccc2c1)N1CC2(CN(CCF)C2)C1` [Compound 23, (6-(2-Fluoroethyl)-2,6-diazaspiro[3.3]heptan-2-yl)(5-(4-(trifluoromethyl)phenoxy)naphthalen-2-yl)methanone] showed a half-inhibitory concentration (IC50) of 100 to 1000 nM.

`O=C(c1ccc2c(Oc3ccc(C(F)(F)F)cc3)cccc2c1)N1CC(NCC(F)F)C1` [Compound 32, (3-((2,2-Difluoroethyl)amino)azetidin-1-yl)(5-(4-(trifluoromethyl)phenoxy)naphthalen-2-yl)methanone]: the IC50 was in the range of 100 to 1000 nM.

In the case of `CCN1CC2(C1)CN(C(=O)c1ccc3c(Oc4ccc(C(F)(F)F)cc4)cccc3c1)C2` [Compound 19, (6-Ethyl-2,6-diazaspiro[3.3]heptan-2-yl)(5-(4-(trifluoromethyl)phenoxy)naphthalen-2-yl)methanone], the half-inhibitory concentration (IC50) fell in the range of 100 to 1000 nM.

Turning to `O=C(c1ccc2c(Oc3ccc(C(F)(F)F)cc3)cccc2c1)N1CC2(CN(CC(F)F)C2)C1` [Compound 24, (6-(2,2-Difluoroethyl)-2,6-diazaspiro[3.3]heptan-2-yl)(5-(4-(trifluoromethyl)phenoxy)naphthalen-2-yl)methanone], the IC50 was in the range of 100 to 1000 nM.
